# Reference: patent US6008372A, “Substituted dinaphthylmethyl and diheteroarylmethylacetyl histidine inhibitors of protein farnesyltransferase” (Warner-Lambert Company, priority 1998, dated 1999)
# Where two headings read alike, the source gives them in different places.
# Columns and labels:
# [1] = system: Ras farnesylation in H-ras Me 12/+ cells; test: Gel shift assay: inhibition of Ras farnesylation in H-ras Me 12/+ cells; assay type: cell-based; settings: 18-hour incubation, read-out: Inhibition of Ras Farnesylation (Minimum Effective Dose)
# Description: (§1) Twenty-four hours after planting 2×10^6 ras-transformed cells per treatment condition, the farnesylation inhibitor is added at varying concentrations. Following an 18-hour incubation period, cells are lysed in phosphate-buffered saline containing 1% Triton X-100, 0.5% sodium deoxycholate, and 0.1% SDS, pH 7.4 in the presence of several protease inhibitors (PMSF, antipain, leupeptin, pepstatin A, and aprotinin all at 1 μg/mL). Ras protein is immunoprecipitated from the supernatants by the addition of 3 μg v-H-ras Ab-2 (Y13-259 antibody from Oncogene Science). After overnight immunoprecipitation, 30 μL of a 50% protein G-Sepharose slurry (Pharmacia) is added followed by 45-minute incubation. Pellets are resuspended in 2× tris-glycine loading buffer (Novex) containing 5% B-mercaptoethanol and then denatured by 5 minutes boiling prior to electrophoresis on 14% Tris-glycine SDS gels. Using Western transfer techniques, proteins are transferred to nitrocellulose membranes followed by blocking in blocking buffer. Upon overnight incubation with primary antibody (pan-ras Ab-2 from Oncogene Science), an antimouse HRP conjugate secondary antibody (Amersham) is employed for detection of the ras protein. Blots are developed using ECL techniques (Amersham).
# (§2) The data in Table 1 show farnesyl protein transferase inhibitory activity, and activity in the gel shift assay against ras protein of selected compounds of Formula I.
# [2] = target: T1, rat brain farnesyl protein transferase (Rattus norvegicus, UniProt Q02293+Q04631); test: Protein:farnesyltransferase (PFT/FPT) inhibitory activity assay; assay type: biochemical
# T1 construct: 40-fold purified rat brain farnesyl protein transferase; from tissue; host or cells: rat brain
# [3] = system: Ras farnesylation in H-ras-NIH3T3 cells; test: Gel shift assay: inhibition of Ras farnesylation in H-ras-NIH3T3 cells; assay type: cell-based; settings: 18-hour incubation, read-out: Inhibition of Ras Farnesylation (Minimum Effective Dose)
# Description: as §1, §2
# [4] = system: human lung carcinoma with a k-ras mutation; settings: nude mice; cited from earlier work
# [5] = Hepes (without 5 mM phosphate), read-out: Farnesyl Protein Transferase Inhibition, Hepes, IC50
# [6] = Hepes/5 mM PO4^-3, pH 7.4, read-out: Farnesyl Protein Transferase Inhibition, Hepes/5 mM PO4^-3, IC50
SMILES,minimal effective concentration [1] [µM],"IC50 [2, 5] [nM]","IC50 [2, 6] [nM]",minimal effective concentration [3] [µM],blocks the growth of a human lung carcinoma with a k-ras mutation [4]
"COC(=O)[C@H](Cc1c[nH]cn1)NC(=O)C(CC1CCCC2CCCCC21)CC1CCCC2CCCCC21 (stereo partly drawn) [Example 36, (S)-2-[3-(Decahydro-naphthalen-1-yl)-2-(decahydro-naphthalen-1-ylmethyl)-propionylamino]-3-(1H-imidazol-4-yl)-propionic acid, methyl ester]",25,310,370,–,–
"CNC(=O)[C@H](Cc1c[nH]cn1)NC(=O)C(Cc1cccc2ccccc12)Cc1cccc2ccccc12 [Example 33, (S)-N-[2-(1H-Imidazol-4-yl)-1-methylcarbamoyl-ethyl]-3-naphthalen-1-yl-2-naphthalen-1-ylmethyl-propionamide]",1,610,440,1,–
"COC(=O)[C@H](Cc1cncn1C)NC(=O)C(Cc1cccc2ccccc12)Cc1cccc2ccccc12 [Example 6, (S)-3-(3-Methyl-3H-imidazol-4-yl)-2-(3-naphthalen-1-yl-2-naphthalen-1-ylmethyl-propionylamino)-propionic acid, methyl ester]",1,420,220,2.5,–
"O=C(N[C@@H](Cc1c[nH]cn1)C(=O)NCCOCc1ccccc1)C(Cc1cccc2ccccc12)Cc1cccc2ccccc12 [Example 23, (S)-N-[1-(2-Benzyloxy-ethylcarbamoyl)-2-(1H-imidazol-4-yl)-ethyl]-3-naphthalen-1-yl-2-naphthalen-1-ylmethyl-propionamide]",5,740,550,–,–
CSCC[C@H](NC(=O)c1ccc(NC[C@@H](N)CS)cc1-c1ccccc1)C(=O)O [FTI-276],–,–,–,–,blocks the growth in nude mice of a human lung carcinoma with a k-ras mutation
"O=C(N[C@@H](Cc1c[nH]cn1)C(=O)NCCc1c[nH]cn1)C(Cc1cccc2ccccc12)Cc1cccc2ccccc12 [Example 27, (S)-N-{2-(1H-Imidazol-4-yl)-1-[2-(1H-imidazol-4-yl)-ethylcarbamoyl]-ethyl}-3-naphthalen-1-yl-2-naphthalen-1-ylmethyl-propionamide]",10,4800,3900,–,–
"COC(=O)[C@H](Cc1c[nH]cn1)NC(=O)C(Cc1cccc2ccccc12)Cc1cccc2ccccc12 [Example 1, (S)-3-(1H-Imidazol-4-yl)-2-(3-naphthalen-1-yl-2-naphthalen-1-ylmethyl-propionylamino)-propionic acid, methyl ester]",2.5,260,300,5,–
"COC(=O)[C@H](Cc1c[nH]cn1)NC(=O)C(Cc1cccc2c1CCCC2)Cc1cccc2c1CCCC2 [Example 37, (S)-3-(1H-Imidazol-4-yl)-2-[3-(5,6,7,8-tetrahydro-naphthalen-1-yl)-2-(5,6,7,8-tetrahydro-naphthalen-1-ylmethyl)-propionylamino]-propionic acid, methyl ester]",10,420,180,–,–
"CC(C)OC(=O)[C@H](Cc1c[nH]cn1)NC(=O)C(Cc1cccc2ccccc12)Cc1cccc2ccccc12 [Example 8, (S)-3-(1H-Imidazol-4-yl)-2-(3-naphthalen-1-yl-2-naphthalen-1-ylmethyl-propionylamino)-propionic acid, isopropyl ester]",5,180,160,5,–
"CCOC(=O)[C@H](Cc1c[nH]cn1)NC(=O)C(Cc1cccc2ccccc12)Cc1cccc2ccccc12 [Example 5, (S)-3-(1H-Imidazol-4-yl)-2-(3-naphthalen-1-yl-2-naphthalen-1-ylmethyl-propionylamino)-propionic acid, ethyl ester]",2.5,130,130,–,–
"O=C(N[C@H](CO)Cc1c[nH]cn1)C(Cc1cccc2ccccc12)Cc1cccc2ccccc12 [Example 52, (S)-N-[1-Hydroxymethyl-2-(1H-imidazol-4-yl)-ethyl]-3-naphthalen-1-yl-2-naphthalen-1-ylmethyl-propionamide]",–,3000,3400,25,–
"CCCOC(=O)[C@H](Cc1c[nH]cn1)NC(=O)C(Cc1cccc2ccccc12)Cc1cccc2ccccc12 [Example 7, (S)-3-(1H-Imidazol-4-yl)-2-(3-naphthalen-1-yl-2-naphthalen-1-ylmethyl-propionylamino)-propionic acid, propyl ester]",5,110,100,–,–
